In publication PMC12176262 (The Febs Journal, 2025):
Like-named read-outs stand apart in the source and are kept apart here.

T1: MCM6 winged-helix domain (WHD) C721S mutant, residues 708-821 (human, UniProt Q14566 708-821, C721S)
T1 sequence (looked up): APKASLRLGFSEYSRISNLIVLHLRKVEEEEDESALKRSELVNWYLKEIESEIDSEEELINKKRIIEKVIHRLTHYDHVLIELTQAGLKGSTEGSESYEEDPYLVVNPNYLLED


Columns and labels:
MCM6 = conditions: ref [56], cited from earlier work
[1] = target: T1, MCM6 winged-helix domain (WHD) C721S …; test: fluorescence polarisation

fold, competition of MBD-C against FITC-MBD-C relative to FITC-MBD-D [1] [fold]	Molecule	interaction with MCM6 (MCM6; both MBD-C and D regions mutated)	interaction with MCM6 (MCM6; either MBD-C or D regions deleted)
–	Bloom syndrome helicase [BLM]	weakened the interaction	do not interact
1.7	WLSSDVICI (peptide, UniProt P54132 230-238, looked up) [BLM MCM6 binding domain C peptide (BLM 230-238), unlabeled]	–	–
